Data taken from US8252524B2, “Method of screening pharmaceutical compositions that promote nuclear transfer of Cdc42 protein” (Kowa Company, Ltd., priority 2004, dated 2012).

What was measured:
Cdc42 protein = assay: Nuclear transfer of GFP/Cdc42 fusion protein in transformed HUVEC observed by fluorescence microscopy; type: cell-based; conditions: HUVEC expressing GFP/Cdc42 fusion protein; 1 μM final concentration; 15 hours culture; nuclei confirmed by Hoechst staining
Description: The present inventors measured the behavior of Cdc42 protein in HUVEC with an HMG-CoA reductase inhibitor, particularly pitavastatin. For this measurement, a gene encoding a Cdc42/fluorescence protein GFP fusion protein was introduced into HUVEC to prepare a transformed cell expressing a GFP/Cdc42 fusion protein. This transformed cell was cultured, and the state of Cdc42 distributed in the cell in the presence or absence of pitavastatin was examined by observing the fluorescence of GFP. A gene encoding the whole area of a Cdc42 translation region was introduced into a predetermined position of a commercial plasmid pEGFP-C1 for preparation of a fusion protein consisting of GFP and a desired protein, to construct a plasmid comprising the GFP-Cdc42 gene. After […] were put to a 6-well plate and then cultured overnight in EGM-2 medium. Using Fugene 6, the plasmid construct DNA prepared above was added in an amount of 0.8 μg/well to the cells. The cells were further cultured for 21 hours in EGM-2 medium, and then the fluorescence of GFP was observed under a fluorescence microscope. […] And then the cells were subjected to stationary culture for 15 hours, fixed onto a prepared slide and observed under a fluorescence microscope. […]

[1] = test system: vascular endothelial cells; conditions: cited from earlier work

Q: What does the source list for O=C(O)C[C@H](O)C[C@H](O)/C=C/c1c(C2CC2)nc2ccccc2c1-c1ccc(F)cc1 [pitavastatin, (3R,5S,6E)-7-[2-cylopropyl-4-(4-fluorophenyl)-3-quinolyl]-3,5-dihydroxy-6-heptenoic acid]?
A: Distribution of GFP-Cdc42 in the cell (transfer into the nucleus) (Cdc42 protein): GFP-Cdc42 is transferred to a nucleus; Expression of NO synthase and thrombomodulin [1]: promotes expression of NO synthase; Expression of PTX3 [1]: suppresses expression of PTX3; Expression of inflammatory cytokine IL-8 or MCP-1, endothelin and PAI-1 [1]: suppresses expression of inflammatory cytokine IL-8 or MCP-1, expression of endothelin and expression of PAI-1
